# Assay results: US10092537B2, “Use for PAI-1 inhibitor” (RENASCIENCE CO., LTD., priority 2013, dated 2018)
# Key:
# [1] = biological target: T1, human PAI-1 (Homo sapiens, UniProt P05121); test: Measurement of PAI-1 inhibitory activity of compound group 1 (t-PA, S-2288 chromogenic substrate); settings: read-out: PAI-1 activity %
# Experimental: Subsequently, human-derived tissue plasminogen activator (t-PA) (manufactured by American Diagnostica, Inc. (USA); the same applies hereinafter) adjusted to 0.35 pmol/μL was added thereto, and the mixture was further incubated at 37° C. for 15 minutes.
# [2] = test system: CML cells; test: Chronic myelogenous leukemia model mice, CML cells engrafted onto bone marrow by FACS (Experimental Example 15); type: in vivo
# Experimental: Chronic myelogenous leukemia model mice prepared in accordance with the procedure of Experimental Example 11 (1) were divided into 3 groups (each group: n=15) and administered respective test drugs.
# (§1) Group 1: placebo group (physiological saline was administered via gavage)
# Group 2: imatinib group (imatinib [150 mg/kg/day] was administered via gavage)
# Group 3: imatinib+compound c group (imatinib [150 mg/kg/day] and compound c [10 mg/kg/day] were administered via gavage)
# 8 days (day 8) after the day on which CML cells were intravenously inoculated (day 0), administration of test drugs to the groups was started. The placebo group and the imatinib group were administered the respective test drugs once a day from day 8 to day 14 (7 doses in total). The imatinib+compound c group was administered imatinib once a day from day 8 to day 14 (7 doses in total), and also administered compound c once a day from day 8 to day 14 (7 doses in total).
# CML cells engrafted onto bone marrow were analyzed by FACS immediately before the administration of a test drug (day 8; “immediately before antitumor agent treatment” in FIG. 19), immediately after the completion of administration of a test drug (day 14; “immediately after antitumor agent treatment” in FIG. 19), and day 28 from the start of administration of a test drug (day 36; “after 28 days” in FIG. 19). […] About 50% leukemia cells were grafted on the bone marrow immediately before administration of a test drug (day 8; “immediately before antitumor agent treatment” in FIG. 19). After the tumor-bearing mice were administered a test drug 7 times (day 14), the proportion of CML cells was analyzed. […] All of the mice in the group administered physiological saline died.
# [3] = test system: HER2-positive human ovarian cancer cell lines SKOV3; test: SKOV3 ovarian cancer subcutaneous tumor, Herceptin and compound c (Experimental Example 18); type: in vivo, BALB/c-nude mice; settings: Herceptin 5 mg/kg i.p. once + compound c 10 mg/kg/day oral (day 0-4, day 7-11); 45 days after administration
# Experimental: HER2-positive human ovarian cancer cell lines SKOV3 (5×10^6) were subcutaneously inoculated into BALB/c-nude mice. For better cell engraftment, the mice were intraperitoneally administered 25 μl of anti-Asialo GM1 antibody (Wako Pure Chemical Industries, Ltd., Code No. 014-09801) 2 days and 1 day before the cancer cell inoculation. […] The group to which Herceptin and compound c were administered in combination is referred to as “compound c-combined group”, and the group to which Herceptin and physiological saline were administered in combination is referred to as “compound c-non-combined group.” The group to which only physiological saline was administered without Herceptin is referred to as “placebo group.”
# [4] = biological target: T1, human PAI-1; test: Measurement of PAI-1 inhibitory activity of compound group 1 (t-PA, Spectrozyme t-PA chromogenic substrate); settings: read-out: PAI-1 activity %
# [5] = Single-dose toxicity test using rat (Experimental Example 6); settings: 500, 1,000, and 2,000 mg/kg oral gavage
# [6] = test system: human hematopoietic stem cells; test: Transplantation of human CD34+ umbilical cord blood cells into irradiated severely immunocompromised mice (Experimental Example 2); type: in vivo; settings: 100 mg/kg oral, 6 doses, 7 days after cell transplantation
# Experimental: Severely immunocompromised mice (recipient) were exposed to radiation (2Gy), and two days later, human CD34^+ cells isolated from human umbilical cord blood were transplanted into the mice. Concurrently with the transplantation, compound a was orally administered into the mice as a test compound (dosage: 100 mg/kg), and the compound was further administered for 5 consecutive days; i.e., 6 doses in total (see FIG. 2A). 2 days after the last administration (7 days after the cell transplantation), the bone-marrow cells were collected, and the abundance ratio of human hematopoietic cells was measured with a flow cytometric analyzer, whereas the cKitL concentration (μg/mL) and VEGF concentration (μg/mL) in the plasma were also measured.
# [7] = test system: CML cells; test: Chronic myelogenous leukemia model mice, compound a alone, imatinib, combination (Experimental Example 16); type: in vivo; settings: day 10 to day 16
# Experimental: as §1
# Group 2: compound a group (compound a [100 mg/kg/day] was administered via gavage)
# Group 3: imatinib group (imatinib [150 mg/kg/day] was administered via gavage)
# Group 4: imatinib+compound a group (imatinib [150 mg/kg/day] and compound a [100 mg/kg/day] were administered via gavage)
# 10 days after (day 10) the day on which CML cells were intravenously inoculated (day 0), administration of test drugs to the groups was started. The placebo group, the compound a group, and the imatinib group were administered the respective test drugs once a day from day 10 to day 16 (7 doses in total). The imatinib+compound a group was administered imatinib once a day from day 10 to day 16 (7 doses in total), and also administered compound a once a day from day 10 to day 16 (7 doses in total).
# [8] = test system: hematopoietic stem cells; test: Bone-marrow transplantation into wild-type mice and tPA-KO-mice (Experimental Example 8 (2)); type: in vivo; settings: 3 weeks after bone-marrow transplantation
# Experimental: Compound a was administered to wild-type mice and tPA-KO-mice (6 mice for each) that underwent bone-marrow transplantation, and 3 weeks after, the mice were measured for the number of bone-marrow mononucleic cells (BM MNC), the frequency and absolute number of Lin-SLAM cells, and the frequency and absolute number of LSK-CD34 negative cells. Physiological saline was administered to a control group, and the same measurement was conducted.
# T1 sequence (P05121 24-402): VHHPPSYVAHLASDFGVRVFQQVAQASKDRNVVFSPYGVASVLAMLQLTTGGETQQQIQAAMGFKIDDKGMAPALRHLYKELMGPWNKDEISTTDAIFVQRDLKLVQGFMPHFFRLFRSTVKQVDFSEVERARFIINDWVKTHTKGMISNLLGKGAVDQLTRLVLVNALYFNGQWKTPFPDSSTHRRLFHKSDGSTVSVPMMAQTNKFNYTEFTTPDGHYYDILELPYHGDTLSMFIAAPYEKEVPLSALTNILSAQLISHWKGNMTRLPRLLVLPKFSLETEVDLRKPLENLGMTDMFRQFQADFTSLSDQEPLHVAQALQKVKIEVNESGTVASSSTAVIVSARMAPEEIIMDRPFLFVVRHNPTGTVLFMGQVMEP
SMILES,activity at 20 µM [1] [%],activity at 50 µM [1] [%],"CML (leukemia) cells in the bone marrow ([2]; imatinib 150 mg/kg/day + compound c 10 mg/kg/day, day 8 to day 14, analysed day 36) [%]","proportion of CML cells in the bone marrow ([2]; imatinib + compound c, day 14, after 7 doses, about 50% before treatment)",tumor volume versus other groups [3],activity at 2.5 µM [4] [%],activity at 10 µM [4] [%],autopsy findings ([5]; after 2 weeks),abnormality during 2-week monitoring ([5]; male and female rats),"toxicity given in a single dose ([5]; male and female rats, monitored 2 weeks)","absolute number of human hematopoietic cells in the bone marrow, versus control group ([6]; control PBS) [times higher]","chimerism of human hematopoietic cells (CD45+) in the bone marrow, versus control group ([6]; control PBS) [times higher]",VEGF in the plasma ([6]; versus control),cKitL in the plasma ([6]; versus control),proportion of CD34+ cell (human HSC) contained in human hematopoietic cells ([6]; versus control),"survival ([7]; compound a 100 mg/kg/day alone, all of the subject mice, as placebo)",survival rate on day 50 ([7]; imatinib 150 mg/kg/day + compound a 100 mg/kg/day via gavage) [%],bone-marrow mononucleic cells ([8]; tPA-KO-mice),frequency or absolute number of Lin-SLAM cells and of LSK-CD34 negative cells ([8]; tPA-KO-mice),bone-marrow mononucleic cells ([8]; wild-type mice)
"O=C(Nc1ccc(Cl)cc1C(=O)O)c1cccc(-c2ccccc2)c1 [Example 4, 2-[(biphenyl-3-ylcarbonyl)amino]-5-chlorobenzoic acid]",47.7,7.6,1.8,marked decrease,significantly smaller,62.1,0.6,–,–,–,–,–,–,–,–,–,–,–,–,–
"O=C(COCC(=O)N1CCN(C(c2ccccc2)c2ccccc2)CC1)Nc1ccc(Cl)cc1C(=O)[O-].[Na+] [Example 30 (compound group 2), 2-(2-(2-(4-benzhydrylpiperazin-1-yl)-2-oxoethoxy)acetamido)-5-chlorobenzoic acid sodium salt]",–,–,–,–,–,–,–,no particular abnormality,None of the male and female rats showed abnormality,low,3 to 10,2 to 9,increased,increased,increased,died during the period from day 10 to day 20,60,did not exhibit an increase,an increase was also not observed,increase
